The target in data set [1] is T1, AchP (Acholeplasma laidlawii, UniProt A9NH41). Briefly: Purified AchP donor and acceptor specificity screen. In kind it is biochemical. The note with it: 3 h room temperature, absorbance 655 nm. The procedure: AchP was heterologously expressed, purified and screened, in the absence of cell lysate, against an extended set of donors and acceptors, including additional N-acetamido sugars, using a phosphorylase screening method described previously that couples the chromogenic development of molybdenum blue to the liberation of free phosphate during reverse phosphorolysis^39,41 (FIG. 1A). When incubated with Glc1-P as donor, AchP was active in the presence of the acceptors GlcNAc, GlcNAc-β1-pNP, GalNAc and GlcNAc-β1,4-GlcNAc, while no activity was detected with the non-acetylated glucosamine and galactosamine. With GlcNAc1-P as donor, AchP was active with all acceptors that contained an N-acetyl moiety, as well as with glucose and glucosamine, but not galactose and galactosamine.
Thirty-six donor and acceptor combinations were done with purified AchP in a 25 μL reaction volume. 10 μL buffer (200 mM HEPES pH 7.0, 200 mM NaCl, 10 mM MgSO4, 400 mM sodium molybdate) was combined with 5 μL water, 2.5 μL donor (100 mM Glc1-P, 100 mM GlcNAc1-P or 100 mM GalNAc1-P) and 2.5 acceptor (500 mM Glc, 400 mM GlcN, 500 mM GlcNAc, 100 mM GlcNAc-β1-pNP, 500 mM Gal, 500 mM GalN, 500 mM GalNAc, 100 mM GalNAc-α1-pNP, 100 mM Glc-β1,3-Glc, 100 mM GlcNAc-β1,4-GlcNAc, 500 mM ManNAc or no acceptor) in a 200 μL PCR tube. 5 μL of purified AchP (0.2 mg/mL) was added to each reaction which were then incubated for 3 h at room temperature. Each 25 μL reaction was transferred to a separate well of a 96-well plate. 75 μL of development solution was added to each well then incubated for 5 min at room temperature before the reaction was stopped by adding 50 μL of quenching solution. Absorbance at 655 nm was measured with a BioTek Synergy H1 Hybrid™ microtiter plate reader.

In data set [2] the target is T1, AchP. Briefly: AchP forward phosphorolysis product analysis (TLC). Type of data set: biochemical. To be noted: with phosphate. As for the experimental part:
(A) AchP products with GlcNAc1-P (donor) and GlcNAc (GNAc1), GlcNAc-β1,4-GlcNAc (GNAc2), or GlcNAc(-β1,4-GlcNAc)3 (GNAc4) (acceptors) were analyzed by TLC, where the products are outlined in black boxes. (B) AchP forward phosphorolysis product analysis with GlcNAc-β1,4-GlcNAc and phosphate and the reverse phosphorolysis with Glc1-P and GlcNAc was include as a control reaction.
Of the six activities described to date in the GH94 family only the N,N′-diacetylchitobiose phosphorylases (ChbP) are known to use GlcNAc1-P as donor, transferring only to monosaccharide GlcNAc acceptors and not to di- or trisaccharides. The other five types utilize Glc1-P. The bacteria from which both characterized ChbPs were discovered are native to marine environments where chitin, a polysaccharide of β1,4-linked GlcNAc and the primary structural component of the exoskeleton of marine invertebrates, is common. Presumably these ChbPs act on disaccharides released from chitin by chitinases. AchP on the other hand is able to utilize GlcNAc-β1,4-GlcNAc and GlcNAc(-β1,4-GlcNAc)3 as acceptors performing iterative addition of N-acetylglucosaminyl residues (FIG. 4A). As noted earlier, we initially anticipated that AchP was a chitin phosphorylase. […]

In data set [3] the target is T1, AchP. The data set can be described thus: AchP reverse phosphorolysis kinetics (phosphate release, molybdenum blue). In kind it is biochemical. The procedure:
(§1) Kinetic parameters for AchP reverse phosphorolysis were determined using the phosphate release method described previously^44. In brief, phosphate release was coupled to the formation of molybdenum blue, which can be quantified by measuring absorbance at 655 nm. Phosphate concentration was determined using a standard curve ranging between 0 and 10 mM phosphate. Kinetic parameters for AchP were determined with four donor and acceptor combinations: (A) Glc1-P and GlcNAc, (B) Glc1-P and GalNAc, (C) GlcNAc1-P and GlcNAc, and (D) GlcNAc1-P and GalNAc. Donor concentration was held constant at 10 mM while the concentrations of the acceptors were varied (as described below). Reactions were initiated by adding 5 μL of 0.25 mg/mL AchP to 10 μL 2× buffer (200 mM HEPES pH 7.0, 200 mM NaCl, 10 mM MgSO4 and 400 mM sodium molybdate), 2.5 μL of 100 mM donor, 2.5 μL of […] acceptor and 5 μL water. Reactions were stopped at the times (t) indicated below by boiling for 5 min, then 20 μL from each reaction was transferred to a 96-well plate. Molybdenum blue formation was initiated by adding 90 μL of color development solution (0.1 N HCl and 0.24% sodium ascorbate) then incubated for 30 min at room temperature. The color development reaction was stopped by adding 90 μL of quenching solution (68 mM sodium citrate and 2% acetic acid). Absorbance at 655 nm was measured with a BioTek Synergy H1 Hybrid™ microtiter plate reader. All reactions were performed in triplicate and acceptor concentrations were chosen to encompass apparent Km value where possible. (A) 10 mM Glc1-P; 0, 1, 5, 10, 25, 50, 100, 200 and 300 mM GlcNAc; t=2 min 45 s. (B) 10 mM Glc1-P; 0, 5, 25, 50, 100, 150, 200, 300 and 380 mM GalNAc; t=5 min. (C) 10 mM GlcNAc1-P; 0, 0.1, 0.25, 0.5, 1, 2, 5, 10, 25 and 50 mM GlcNAc; t=3 min. (D) 10 mM GlcNAc1-P; 0, 5, 10, 25, 50, 100, 150, 200 and 300 mM GalNAc; t=3 min. Non-linear regression was performed using GraphPad Prism™ version 6.0. For (A) and (C) data were fit using the Michaelis-Menten equation incorporating substrate inhibition: For (B) and (D) data were fit using the standard Michaelis-Menten equation: […]

The target of data set [4] is GH101 endo-α-N-acetylgalactosamindase (EngSP) (Streptococcus pneumoniae, UniProt Q8DR60). To be noted: only minimal aglycone release in controls.
In data set [5] the target is T1, AchP. The data set can be described thus: AchP reverse phosphorolysis kinetics (phosphate release, molybdenum blue). The note with it: as donor (GalNAc1-P) or acceptor (glucose); reasonable substrate and enzyme concentrations. In kind it is biochemical.
Substrate in data set [6]: CC(=O)NC1C(O)[C@@H](O)C(CO)O[C@@H]1O
Described as above. In kind it is biochemical, Acholeplasma laidlawii. The note with it: other: donor αGlcNAc1-P 10 mM; acceptor concentration varied; pH 7.0. As for the experimental part:
as §1

Substrate in data set [7]: CC(=O)NC1C(O)[C@H](O)C(CO)O[C@H]1O
The description is as above. In kind it is biochemical, Acholeplasma laidlawii. To be noted: acceptor concentration varied, pH 7.0. The procedure:
as §1

A word on the kcat: it is the maximal rate divided by the concentration of active sites. Broadly, the Km is the substrate concentration at which the rate is half of its maximum. As a reminder, the kcat/Km is the turnover number divided by the Michaelis constant.

GH101 endo-α-N-acetylgalactosamindase (EngSP), sequence (Q8DR60 40-1738 limits assumed): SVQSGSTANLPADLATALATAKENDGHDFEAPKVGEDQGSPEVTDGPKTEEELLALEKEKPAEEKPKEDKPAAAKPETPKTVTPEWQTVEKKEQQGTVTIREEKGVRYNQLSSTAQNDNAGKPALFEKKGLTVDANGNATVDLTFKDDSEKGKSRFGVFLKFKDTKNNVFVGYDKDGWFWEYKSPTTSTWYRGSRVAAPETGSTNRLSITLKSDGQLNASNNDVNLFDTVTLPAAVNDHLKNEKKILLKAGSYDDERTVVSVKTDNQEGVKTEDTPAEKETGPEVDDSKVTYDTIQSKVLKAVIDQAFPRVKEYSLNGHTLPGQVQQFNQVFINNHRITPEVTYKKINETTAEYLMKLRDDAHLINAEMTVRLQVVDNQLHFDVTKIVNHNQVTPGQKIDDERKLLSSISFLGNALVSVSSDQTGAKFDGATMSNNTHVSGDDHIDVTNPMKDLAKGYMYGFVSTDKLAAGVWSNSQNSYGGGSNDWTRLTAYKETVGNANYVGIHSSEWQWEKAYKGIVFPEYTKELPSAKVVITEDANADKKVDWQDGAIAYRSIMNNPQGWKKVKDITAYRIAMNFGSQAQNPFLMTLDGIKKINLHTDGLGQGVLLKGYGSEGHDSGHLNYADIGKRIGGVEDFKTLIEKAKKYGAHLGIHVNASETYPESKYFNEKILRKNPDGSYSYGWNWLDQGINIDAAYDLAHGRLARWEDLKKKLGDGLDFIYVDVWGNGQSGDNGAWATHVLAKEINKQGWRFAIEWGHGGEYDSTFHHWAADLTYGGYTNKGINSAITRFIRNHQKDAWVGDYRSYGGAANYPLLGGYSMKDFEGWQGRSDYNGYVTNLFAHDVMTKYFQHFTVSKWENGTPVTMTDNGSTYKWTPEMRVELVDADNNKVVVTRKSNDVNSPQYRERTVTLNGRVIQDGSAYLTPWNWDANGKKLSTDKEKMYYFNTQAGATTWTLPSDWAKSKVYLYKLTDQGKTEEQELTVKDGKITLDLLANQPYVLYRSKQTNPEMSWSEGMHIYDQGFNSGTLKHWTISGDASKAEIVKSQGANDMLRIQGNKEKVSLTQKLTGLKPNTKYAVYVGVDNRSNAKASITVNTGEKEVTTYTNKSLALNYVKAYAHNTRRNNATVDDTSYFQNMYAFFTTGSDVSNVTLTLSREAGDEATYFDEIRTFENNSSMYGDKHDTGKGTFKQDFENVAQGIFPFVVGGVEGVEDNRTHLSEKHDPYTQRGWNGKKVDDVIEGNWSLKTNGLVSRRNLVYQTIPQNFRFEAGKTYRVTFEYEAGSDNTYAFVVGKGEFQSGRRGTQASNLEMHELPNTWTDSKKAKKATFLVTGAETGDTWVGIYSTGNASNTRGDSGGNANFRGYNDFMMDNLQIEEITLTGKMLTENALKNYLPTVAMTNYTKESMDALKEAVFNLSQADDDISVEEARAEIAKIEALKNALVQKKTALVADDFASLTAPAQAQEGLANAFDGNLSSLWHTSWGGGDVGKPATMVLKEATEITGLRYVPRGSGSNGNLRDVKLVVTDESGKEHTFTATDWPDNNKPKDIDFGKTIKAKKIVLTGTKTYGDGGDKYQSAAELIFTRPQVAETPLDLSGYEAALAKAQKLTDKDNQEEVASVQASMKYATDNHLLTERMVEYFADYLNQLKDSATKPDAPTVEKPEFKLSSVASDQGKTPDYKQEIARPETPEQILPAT

As to `CC(=O)N[C@H]1[C@H](O[C@H]2[C@H](O)[C@@H](NC(C)=O)C(O)O[C@@H]2CO)O[C@H](CO)[C@@H](O)[C@@H]1O` (stereo partly drawn) [GlcNAc-β1,4-GlcNAc, N,N′-diacetylchitobiose], in data set [1] (Glc1-P as donor), the “AchP activity with acceptor” value is “active”. The “phosphorolysis (substrate cleavage)” value in data set [2] is “no substrate cleavage could be detected”.
Take `CC(=O)N[C@H]1[C@@H](OP(=O)(O)O)O[C@H](CO)[C@@H](O)[C@@H]1O` [GlcNAc1-P, α-N-acetylglucosamine 1-phosphate]: in data set [3] (GlcNAc as acceptor), the “Km value lower than with Glc1-P as donor” value is approximately 10 fold and the “kcat greater than with Glc1-P as donor” value was determined as 2 fold.
With `N[C@H]1C(O)O[C@H](CO)[C@@H](O)[C@@H]1O` (stereo partly drawn) [glucosamine], the “AchP activity with acceptor” value in data set [1] (Glc1-P as donor) was “no activity”; in data set [1] (GlcNAc1-P as donor) it was “active”.
On to `CC(=O)N[C@H]1[C@H](Oc2ccc([N+](=O)[O-])cc2)O[C@H](CO)[C@@H](O)[C@@H]1O` [GlcNAc-β1-pNP], for which the “AchP activity with acceptor” value in data set [1] (Glc1-P as donor) is given as “active”.
With `CC(=O)NC1C(OC2C(O)C(CO)OC(Oc3ccc([N+](=O)[O-])cc3)C2NC(C)=O)OC(CO)C(O)C1O` (stereo not drawn) [GlcNAc-β1,3-GalNAc-α1-pNP], the “aglycone release after incubation with EngSP” value in data set [4] is “release of both pNP and MU aglycones could be detected”.
With `CC(=O)NC1C(O)[C@@H](O)C(CO)O[C@@H]1O` (stereo partly drawn) [GalNAc, N-acetylgalactosamine], the turnover number (kcat) in data set [3] (donor αGlc1-P 10 mM, acceptor concentration varied) worked out at 12.5 ± 0.5 s⁻¹. The “AchP activity with acceptor” value in data set [1] (Glc1-P as donor) is recorded as “active”.
Regarding `OC[C@H]1O[C@@H](O[C@H]2[C@H](O)[C@@H](CO)OC(O)[C@@H]2O)[C@H](O)[C@@H](O)[C@@H]1O` (stereo partly drawn) [laminaribiose], the “AchP activity with acceptor” value in data set [1] (Glc1-P as donor) is “no activity”.
Turning to `N[C@H]1C(O)O[C@H](CO)[C@H](O)[C@@H]1O` (stereo partly drawn) [galactosamine], the “AchP activity with acceptor” value in data set [1] (Glc1-P as donor) is reported as “no activity”; in data set [1] (GlcNAc1-P as donor), “not”.
As to `CC(=O)NC1C(OC2C(O)C(CO)OC(Oc3ccc4c(C)cc(=O)oc4c3)C2NC(C)=O)OC(CO)C(O)C1O` (stereo not drawn) [GlcNAc-β1,3-GalNAc-α1-MU], the “aglycone release after incubation with EngSP” value in data set [4] was “release of both pNP and MU aglycones could be detected”.
On to `CC(=O)N[C@H]1C(OP(=O)(O)O)O[C@H](CO)[C@H](O)[C@@H]1O` (stereo partly drawn) [GalNAc1-P], for which the “Activities (kinetic parameters not determined)” value in data set [5] is “too low”.
For `CC(=O)NC1C(O)[C@H](O)C(CO)O[C@H]1O` (stereo partly drawn) [GlcNAc, N-acetyl-glucosamine], the Ki in data set [3] (donor αGlcNAc1-P 10 mM, substrate inhibition fit) amounted to 27.1 ± 3.6 mM. In data set [1] (Glc1-P as donor), the “AchP activity with acceptor” value is recorded as “active”.
On to `O=C[C@H](O)[C@@H](O)[C@@H](O)[C@H](O)CO` [galactose, D-galactose], for which the “AchP activity with acceptor” value in data set [1] (GlcNAc1-P as donor) is on record as “not”.

B1: AchP (Acholeplasma laidlawii PG-8A) (protein)
chain: MKLKQDVISIYQKISLFESGQLNITKLASGAYYLDDELTLITDPVNSGARFPYAVNGMTIWAYASGYISINHSSYYILPPNLEGKEPFLDFFGIEQDGNNTYPVSLLGVSERNDEIENKRYTVFSKNIAYYITVTKNFLYAVTVYISKDFKIYFNTVAHNLTGETKQITLSSFFNMLFKYDSGESIETKWFKKVSYENNMFIYDAPEDIDRHTRIENYGVVKRHLHTKPKNIQNTTSRIDYVGKRYRSVRNALSIRSLKFEKAPLVTNFTDTAINADLINYEVKAYDTIISSYRIETCHDKDTLNKMMASDLTDKEIKKVYEGLSNTQSYDFDNFGISFKGVNDNRVDDKVLNQFLKLVNYQIHFSSLSSNSGTVFLGVRDVMQQLESSLIWDRKNVRSKILEVLSFIDPSGLPPRQYALPPKEGNPRMDLRPFIDQGLWIISTLHTYLAYTEDYDILNEVCGYYERIEPNSAKKSKVENSVLEHLIRVTNYLVSNIDPSTYGLKALYGDWNDALDGLGLIEGSSGYGNGVSVMATLQLYENLERMIEILKLVDPQNEHINTYEVVRHNLSLGINKYAVVIKQDEKRVLHGWGHDRSYFVGSFNDPDGHSRNSLTSNAFYIISDMIKNTPEMKPHLLHAFHNLDSKYGLKTFDPAMQDFHGFGRIINLPPGTAENAATYVHATLFGVLALYMLGEGDFANEQVLKVLPITKKEMSTSPFIMPNSYVHNEELNMDGESMSDWYTGSANTLLKTLIRGLFGLEVKFDHLRLRPSKAFFSKEATLMVSIGNKLTRIVYKNNNNGNRTFKLNGKVIEAKLDTLSGLLYIDINKSILEHQNVIHIQD
With B1, in data set [6], the Km is recorded as 71.4 ± 4.1 mM, the turnover number (kcat) was 46.7 ± 0.9 s⁻¹ and the kcat/Km was found to be 700 ± 200 M⁻¹ s⁻¹. For the same molecule, in data set [7] (other: donor αGlc1-P 10 mM), the Michaelis constant (Km) is 29.9 ± 3.7 mM, the catalytic constant (kcat) came out at 24.2 ± 1.6 s⁻¹ and the kcat/Km turned out to be 800 ± 400 M⁻¹ s⁻¹. In addition, in data set [7] (other: donor αGlcNAc1-P 10 mM), the Michaelis constant (Km) was 3.5 ± 0.4 mM, the catalytic constant (kcat) came out at 50.8 ± 3.2 s⁻¹ and the kcat/Km is 14500 ± 8000 M⁻¹ s⁻¹.
